System: FADD-deficient Jurkat cells
Test: necroptosis assay (TNF-α-induced necroptosis, CellTiter-Glo ATP-based viability)
Format: cell-based
Details: FADD-deficient Jurkat cells treated with 10 ng/ml human TNFalpha for 24 hr, eleven concentrations
Procedure: Evaluation of necroptosis inhibitory activity can be performed using a FADD-deficient variant of human Jurkat T cells treated with TNF-α as previously described (Degterev et al., Nat. Chem. Biol. 1:112 (2005) and Jagtap et al., J. Med. Chem. 50: 1886 (2007)). For EC50 value determinations, cells can be treated with 10 ng/mL of human TNF-α in the presence of increasing concentration of test compounds for 24 hours followed by ATP-based viability assessment.
ATP-based viability assessment: Briefly, necroptosis activity can be performed using a FADD-deficient variant of human Jurkat T cells treated with TNF-α. For EC50 value determinations, cells (500,000 cells/mL, 100 μL per well in a 96-well plate) can be treated with 10 ng/mL of human TNF-α in the presence of increasing concentration of test compounds for 24 hours at 37° C. in a humidified incubator with 5% CO2 followed by ATP-based viability assessment. Stock solutions (30 mM) in DMSO can be prepared and then diluted with DMSO to give testing solutions, which were added to each test well. The final DMSO concentration can be 0.5%. Eleven compound test concentrations (0.030-100 μM) can be used, and each concentration can be done in duplicate.
Cell viability assessments can be performed using a commercial luminescent ATP-based assay kit (CellTiter-Glo, Promega, Madison, Wis.) according to the manufacturer's instructions. Briefly, 40 μL of the cell lysis/ATP detection reagent can be added to each well. Plates can be incubated on a rocking platform for 10 minutes at room temperature and luminescence was measured using a Wallac Victor 3 plate-reader (Perkin Elmer, Wellesley, Mass.). Cell viability can be expressed as a ratio of the signal in the well treated with TNF-α and compound to the signal in the well treated with compound alone in order to account for nonspecific toxicity. EC50 values can be calculated using nonlinear regression analysis of sigmoid dose-response (variable slope) curves from plots of log [I] verses viability values.
For necroptosis assay, FADD-deficient Jurkat cells were treated with 10 ng/ml human TNFalpha for 24 hr, followed by CellTiter-Glo viability assay (Promega). EC50 values were calculated using non-linear regression in GraphPad Prism software. Eleven concentrations of each compound were tested to generate dose response curves.

| Compound | EC50 | EC50, nM in necroptosis assay |
| --- | --- | --- |
| Cc1ccc(CCCCCN2C(=O)NC(Cc3c[nH]c4c(Cl)cccc34)C2=O)cc1C#Cc1cnc2cccnn12 (stereo not drawn) [Compound (34)] | 185 nM | – |
| O=C1NC(Cc2c[nH]c3c(Cl)cccc23)C(=O)N1CCC#Cc1cnc2cccnn12 (stereo not drawn) [Compound (41)] | 745 nM | – |
| Cc1ccc(SCCN2C(=O)NC(Cc3c[nH]c4c(Cl)cccc34)C2=O)cc1C#Cc1cnc2cccnn12 (stereo not drawn) [Compound (30)] | 80.4 nM | – |
| Cc1ccc(C(=O)NCCN2C(=O)NC(Cc3c[nH]c4c(Cl)cccc34)C2=O)cc1CCc1cnc2cccnn12 (stereo not drawn) [Compound (8)] | 1770 nM | – |
| CNC(=O)c1cc(Oc2ccc(NC(=O)CCN3C(=O)NC(Cc4c[nH]c5c(Cl)cccc45)C3=O)c(F)c2)ccn1 (stereo not drawn) [Compound (36)] | 19300 nM | – |
| O=C(NCCN1C(=O)NC(Cc2c[nH]c3c(Cl)cccc23)C1=O)c1cccc(C#Cc2cnc3cccnn23)c1 (stereo not drawn) [Compound (3)] | 364 nM | – |
| Cc1ccc(CCN2C(=O)NC(Cc3c[nH]c4c(Cl)cccc34)C2=O)cc1C#Cc1cnc2cccnn12 (stereo not drawn) [Compound (31)] | 136 nM | – |
| Cc1ccc(C(=O)NCCN2C(=O)NC(Cc3c[nH]c4c(Cl)cccc34)C2=O)cc1C#Cc1cnc2cccnn12 (stereo not drawn) [Compound (1)] | 200 nM | – |
| CNC(=O)c1cc(Oc2ccc(NC(=O)N3C(=O)NC(Cc4c[nH]c5c(Cl)cccc45)C3=O)c(F)c2)ccn1 (stereo not drawn) [Compound (38)] | – | INACTIVE |
| CNC(=O)c1cc(Oc2ccc(CCCN3C(=O)NC(Cc4c[nH]c5c(Cl)cccc45)C3=O)c(F)c2)ccn1 (stereo not drawn) [Compound (37)] | 24500 nM | – |
| Cc1ccc(OCCN2C(=O)NC(Cc3c[nH]c4c(Cl)cccc34)C2=O)cc1C#Cc1cnc2cccnn12 (stereo not drawn) [Compound (32)] | 134 nM | – |
| Cc1ccc(CCCN2C(=O)NC(Cc3c[nH]c4c(Cl)cccc34)C2=O)cc1C#Cc1cnc2cccnn12 (stereo not drawn) [Compound (33)] | 74.4 nM | – |
| Cc1cc(CCCCN2C(=O)NC(Cc3c[nH]c4c(Cl)cccc34)C2=O)ccc1C#Cc1cnc2cccnn12 (stereo not drawn) [Compound (35)] | 299 nM | – |
| Cc1ccc(C(=O)NCCN2C(=O)NC(Cc3c[nH]c4c(Cl)cccc34)C2=O)cc1C#Cc1cnc2ccccn12 (stereo not drawn) [Compound (2)] | 163 nM | – |
| Cc1ccc(CCCCN2C(=O)NC(Cc3c[nH]c4c(Cl)cccc34)C2=O)cc1C#Cc1cnc2cccnn12 (stereo not drawn) [Compound (29)] | 9.9 nM | – |

Reference: patent publication US20160024098A1, “HYBRID NECROPTOSIS INHIBITORS” (PRESIDENT AND FELLOWS OF HARVARD COLLEGE, priority 2013, published 2016)
